{"source": "patent US11066481B2", "about": "“Antibodies to coagulation factor XIa and uses thereof” (THE REGENTS OF THE UNIVERSITY OF CALIFORNIA, priority 2015, dated 2021)", "key": {"[1]": {"test_system": "rabbit model of venous thromboembolism (VTE)", "assay": "rabbit model of venous thromboembolism (VTE)", "assay_type": "in vivo", "source_text": "All procedures performed on these animals were in accordance with regulations and established guidelines and were reviewed and approved by an Institutional Animal Care and Use Committee or through an ethical review process. Rabbits were anesthetized according to established protocols. […] Furthermore, for the Rivaroxaban treated animals, the i.v. bolus injection was supplemented by a continuous i.v. infusion of Rivaroxaban to maintain proper dosing throughout the duration of the study due to short half-life concerns. For all treatment groups, 30 minutes after bolus injection, a sheath of the appropriate size was placed in the left femoral vein. Then a wire of approximately 14 cm with 8 strands of cotton thread attached to it (each 3 cm long) was inserted into the femoral vein. Fluoroscopy was used for guidance of the wire with the threads towards the target area in the vena cava. […] After 90 minutes the device was removed by surgical dissection, cut from the wire, and the clot-containing cotton threads were weighed after having been blotted dry. Prior to IgG dosing, and also prior to surgical removal of threads, a blood sample was drawn for preparation of serum (PK) and plasma (for PD biomarkers APTT and PT)."}, "[2]": {"test_system": "rabbit cuticle bleeding", "assay": "rabbit cuticle bleeding study", "assay_type": "in vivo", "settings": "1.5 mg/kg i.v. bolus plus infusion", "description": "All procedures performed on these animals were in accordance with regulations and established guidelines and were reviewed and approved by an Institutional Animal Care and Use Committee or through an ethical review process. Rabbits were anesthetized according to established protocols. After anesthesia and cannulation etc., both front paws were shaved to remove fur that would otherwise contaminate saline and wick it out of the tube. Pre dosing bleeds were performed on the middle digit of the left front paw. Post dosing bleeds were performed on the same digit on the right front paw. There were four dosing groups of 10 animals each. […] Furthermore, for the Rivaroxaban treated animals, the i.v. bolus injection was supplemented by a continuous i.v. infusion of Rivaroxaban to maintain proper dosing throughout the duration of the study due to short half-life concerns. Nails were transilluminated with white light to visualize the quick and cut with a razor blade so as to transect the cuticle approximately 1 mm proximal to the apex of the quick. The nail was then immediately immersed in a saline solution in 10×75 mm 3 ml polystyrene (clear) tube. The tube with saline was stored at 37° C. before the cut. The nail was kept in the solution and time to cessation of flow was measured. […] At the end of the blood collection the tube is capped and inverted 5 times and centrifuged at 200 to 250×g for 15 min. The blood cell pellet was resuspended in 3 mL erythrocyte lysis buffer (8.3 g/L NH4Cl, 1.0 g/LKHCO3, and 0.037 g/L EDTA in water). After at least 15 min of lysis time, hemoglobin (Hb) concentration was measured at OD 575 nm using a Spectrophotometer) and expressed as arbitrary absorbance units. As indicated above, baseline cuticle bleeding times were performed prior to dosing. […] 30 minutes later a second cuticle cut was made and bleeding times recorded and blood loss measured. […]"}, "[3]": {"settings": "1.5 mg/kg i.v. bolus plus continuous infusion"}}, "data": [{"smiles": "O=C(NC[C@H]1CN(c2ccc(N3CCOCC3=O)cc2)C(=O)O1)c1ccc(Cl)s1", "note": "[Rivaroxaban]", "values": [{"measurement": "any read outs measured (thrombus weight, APTT, PT)", "setting": "[1]; 0.045 mg/kg i.v. bolus plus continuous infusion", "result": "No effects"}, {"measurement": "thrombus/clot weight", "setting": "[1]; [3]", "result": "decreased thrombus/clot weight"}, {"measurement": "time to clotting in APTT assay", "setting": "[1]; [3]", "result": "prolonged time to clotting"}, {"measurement": "time to clotting in PT assay", "setting": "[1]; [3]", "result": "prolonged time to clotting"}, {"measurement": "time to clotting in APTT coagulation assay", "setting": "[2]", "result": "significant prolongation in time to clotting"}, {"measurement": "time to clotting in PT coagulation assay", "setting": "[2]", "result": "significant prolongation in time to clotting"}, {"measurement": "total blood loss following cuticle cutting", "setting": "[2]", "result": "significantly increased total blood loss"}]}]}
